Here are results for one compound from patent publication US8017350B2, “Glimepiride- and insulin-induced glycosylphosphatidylinositol-specific phospholipase C regulation” (Sanofi-Aventis Deutschland GmbH, priority 2004, dated 2011).

Assay [1] concerns GPI-PLC, hcDIGs of rat adipocytes. Type of assay: biochemical. To be noted: isolated hcDIGs; concentration-dependent.
In assay [2] the test system is isolated rat adipocytes. Description: isoproterenol-induced lipolysis (glycerol release). Type of assay: cell-based. The method, then:
Electroporation was performed as described in “Müller, G. et al., (2000) Mol. Cell. Biol. 20: 4708-4723”. Lipolysis was determined as release of glycerol or fluorescent NBD-FA from prelabeled and isoproterenol-stimulated adipocytes as described in “Müller, G. et al., (2003) Biochimie 85: 1245-1256”. Gce1 was detected by photolabeling of solubilized plasma membranes or hc/lcDIGs (10-50 μg protein) with 8-N3—[^32P]cAMP and subsequent phosphorimaging as described in “Müller, G. et al., (1994) Biochemistry 33: 12149-12159”. 5′-Nuc, aP and AChE activities were measured according to “Eliakim, R. et al., (1990) Biochim. Biophys. Acta 1355: 293-302”. Protein was determined using the BCA protein determination kit from Pierce (Rockford, Ill.) and BSA as calibration standard. SDS-PAGE was performed using precast gels (Novex, San Diego, Calif.; 10% Bis-Tris resolving gel, morpholinopropanesulfonic acid-SDS running buffer). Lumiimages were evaluated on a LumiImager using LumiImager software (Roche Diagnostics). Phosphor- and fluorescence images were processed and quantified using the Storm 860 PhosphorImager system (Molecular Dynamics, Gelsenkirchen, Germany). Figures were constructed using the ADOBE PHOTOSHOP software (Adobe Systems, Mountain View, Calif.).
FIG. 8: Effect of GPI-2350 on the glimepiride/insulin-induced metabolic activity. […]

Assay [3] has as its system pp59Lyn and Gce1 / caveolin-1 in hcDIGs of rat adipocytes. Description: Dissociation of pp59Lyn and Gce1 from caveolin-1. Format: cell-based. The settings on record: Adipocyte, FIG. 6 Panel B, read-out: IC50 for abrogation of losses from caveolin-1 immunoprecipitates. The method, then:
Solubilized DIGs (see above, 5-20 μg protein) were precleared by incubation with protein A/G-Sepharose and subsequent centrifugation (10,000×g, 5 min). The supernatant was incubated with anti-caveolin-1 antibodies (1:1000) preadsorbed on protein A/G-Sepharose in 1 ml of 10 mM Tris/HCl (pH 7.4), 150 mM NaCl, 1% TX-100 for 1 h at 4° C. The immune complexes were washed twice with the same buffer and then twice with buffer lacking TX-100 and finally subjected to SDS-PAGE performed in the absence of β-mercaptoethanol. The recovery of immunoprecipitated caveolin was normalized by homologous immunoblotting with anti-caveolin antibodies of the same blot following stripping of the membrane.
Next we investigated the putative causal relationship between dissociation from caveolin/activation and stimulus-dependent lipolytic cleavage of GPI-proteins in rat adipocytes by inhibiting GPI-PLC and subsequent analysis of the interaction with caveolin-1 of Gce1 and pp59^Lyn as well as kinase activity of the latter (FIG. 6). […] This potency is similar to GPI-PLC inhibition by GPI-2350 in intact adipocytes (FIG. 3). […]

SMILES strings stand for the structures.

A word on the IC50: it is the concentration at which inhibition is half-maximal. `CCCCCCCCCCCCP1(=O)O[C@@H]2[C@H](O)[C@@H](O)[C@H](O)[C@@H](O)[C@@H]2O1` (stereo partly shown) [GPI-2350, myo-inositol-1,2-cyclo-dodecylphosphonic acid]: the “reduction of basal and glimepiride-/insulin-stimulated GPI-PLC activity” value in assay [1] was “to lower than basal and similar levels”. Also, in assay [2], the “effect on insulin inhibition of lipolysis” value is recorded as “only marginally reduced”. In assay [2] (50 μM), the “effect on inhibition of lipolysis in response to glimepiride” value is recorded as “almost complete blockade”. In assay [3], the IC50 was 5 to 10 µM.
